Common to all, as to experiment: inhibition of tumour cell growth, NCI panel, 48 h
Test [1] relates to CCRF-CEM leukemia.
In test [2] the test system is HL-60(TB) leukemia.
Test [3] concerns HOP-92 NSCLC.
Test [4] deals with LOX IMVI melanoma.
Test [5] relates to MOLT-4 leukemia.
In test [6] the test system is NCI-H522 lung.
Test [7] deals with SK-MEL-28 melanoma.
The subject of test [8] is SK-MEL-2 melanoma.
Test [9] relates to SK-OV-3 ovarian.
For test [10], the system named is NCI-H226 lung.

Values joined by “and” are separate entries in the source; they are usually repeats but may differ in a detail not shown here. Equal values may be shown once.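 Each compound was tested at five concentrations against cells in 96-well plates for 48 hours. GI50: concentration for 50% inhibition of growth. TGI denotes the concentration required for complete inhibition of growth.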

For `CC(=O)c1c2c(cc3c1CC1(C3)Cc3cc4c(c(C(C)=O)c3C1)CCC4)CCC2`, the TGI in test [1], in test [2], in test [3], in test [4], in [5] and in test [6] was more than 100 µM in each case. Moreover, in test [7], the TGI was more than 100 µM.

For `CNC(=O)c1c(NC(=O)c2ccc(C(C)(C)C)cc2)sc2c(CN(C)C)c(O)ccc12`, the GI50 in [1] is 1200 nM; in [2], 1260 nM; in test [3] it was 1.2 µM; in test [4], 1130 nM; in test [5], 1.28 µM; in test [8], 2.1 µM. In [7], the GI50 is 1730 nM. In addition, the TGI in test [1] stood at 4.68 µM; in test [2], 3.18 µM; in test [3] it was 2.74 µM; in test [4], 2.38 µM; in test [5], 3.73 µM; in [8] it was 4.28 µM. For the same compound, in [7], the TGI was found to be 3.19 µM.

With `N/C(=N\N=C\c1ccc(C(F)(F)F)cc1)NO`, the TGI was 95.5 µM in test [1]; 46.3 µM in test [2]; 58.8 µM in test [3]; 50.4 µM in test [6]; 92 µM in test [8]; more than 100 µM in test [7]. For the same compound, the TGI in [9] was more than 100 µM.

Turning to `Nc1ccc(C2=CC(c3ccc(Cl)cc3)N3C=CSC3=N2)cc1` (configuration not stated), the GI50 in [2] is 6130 nM; in [3] it was 17.7 µM; in test [4], 2340 nM; in test [5] it was 4.03 µM; in test [10], 9.36 µM; in [6], 3.51 µM. For the same compound, the GI50 in test [8] is 26.3 µM; in [7], 4860 nM; in [9], 5.07 µM. In addition, the TGI in [2] was 53.5 µM; in [3], 72.4 µM; in test [4], 5.65 µM; in test [5], 89.7 µM; in test [10] it was more than 100 µM; in [6], 11.3 µM. The TGI worked out at 59.3 µM in [8], 16.6 µM in [7] and 25.5 µM in [9].

Regarding `CCCCCCCCCCCCCCCCCCn1cc[n+](C)c1`, the GI50 was 127 nM and 458 nM in test [1]; 143 nM and 293 nM in test [2]; 0.35 µM in test [3]; 189 nM and 406 nM in [4]; 0.189 µM and 0.65 µM in test [5]; 1010 nM and 1150 nM in test [7]. In test [9], the GI50 was 1.23 µM and 1.1 µM. The TGI in [2] is 0.336 µM and 1.67 µM; in test [3], 2.62 µM; in test [4], 0.479 µM and 1.75 µM; in test [7], 2.41 µM and 2.59 µM; in test [9], 4.14 µM and 2.62 µM.

In the case of `COCN1COCN=C1NC#N`, the TGI in [2], in [3], in test [5], in [10], in test [6] and in test [8] was more than 100 µM in each case. The TGI in [7] and in test [9] was more than 100 µM each time.

Take `COC(=O)N/N=C(\C)c1c(O)cc(C)oc1=O`: the TGI in test [1] is more than 100 µM; in test [2], more than 100 µM; in test [3], more than 100 µM; in [4] it was 44.5 µM; in [5], more than 100 µM; in test [10], more than 100 µM. Besides, the TGI in test [8], in [7] and in [9] was more than 100 µM throughout.

Regarding `O=C(CCCN1CCC(O)(c2ccc(Cl)cc2)CC1)c1ccc(F)cc1`, the TGI in [1] is more than 100 µM; in test [3], more than 100 µM; in test [4] it was 33.1 µM; in test [5], more than 100 µM; in test [10], more than 100 µM; in test [6], 39.5 µM. The TGI in [8] is 39.5 µM; in test [7] it was 36.9 µM; in test [9], more than 100 µM.

Turning to `COc1ccc(-c2nc(-c3ccc(C)cc3)cn3ccnc23)cc1`, the GI50 in test [1] was 5470 nM; in test [2], 2580 nM; in test [3], 16.2 µM; in test [4], 3430 nM; in test [5], 22.3 µM; in test [8] it was 20.8 µM. Further, the GI50 in test [9] was 33.5 µM. The TGI in test [1] was more than 50 µM; in [2], more than 50 µM; in test [3], more than 50 µM; in test [4] it was 13.8 µM; in test [5], more than 50 µM; in test [8], more than 50 µM. This compound also gave a TGI in test [9] of more than 50 µM.

Take `Cc1csc2[n+]1-c1ccccc1N(C(=O)Nc1ccccc1)C(C)C2` (configuration not stated): the GI50 in test [1] was 29500 nM; in test [3] it was 41.7 µM; in test [4], 21600 nM; in test [5] it was 88.5 µM; in test [10] it was more than 100 µM; in test [6], 61.9 µM. The GI50 in test [8] was more than 100 µM; in test [7], more than 100000 nM. Further, the TGI in [1] is 69.6 µM; in test [3] it was more than 100 µM; in test [4], 48.5 µM; in test [5] it was more than 100 µM; in [10], more than 100 µM; in [6], more than 100 µM. Moreover, the TGI in test [8] and in [7] was more than 100 µM in each case.

For `NCCCC[C@@H]1NC(=O)[C@H](CC(=O)O)NC(=O)CNC(=O)[C@H](CCCN=C(N)N)NC(=O)[C@@H](N)CSSC[C@@H](C(=O)O)NC(=O)[C@H](CC(=O)O)NC(=O)[C@@H]2CCCN2C(=O)CNC1=O`, the GI50 in test [1] was more than 100000 nM; in test [2], more than 100000 nM; in test [3], more than 100 µM; in [4], more than 100000 nM; in test [5] it was more than 100 µM; in [10] it was more than 100 µM. Moreover, the values for the GI50 in [6], in test [7] and in [9] were more than 100 µM, more than 100000 nM and more than 100 µM, respectively. For the same compound, the TGI in [1], in test [2], in test [3], in [4], in [5] and in test [10] was more than 100 µM each time. Moreover, the TGI in test [6], in [7] and in test [9] was more than 100 µM in each case.

The values are drawn from PubChem BioAssay (NCI).
